US20210188856A1, “CRYSTAL FORM OF HYDROCHLORIDE OF PYRAZOLOHETEROARYL DERIVATIVE AND PREPARATION METHOD” (JIANGSU HENGRUI MEDICINE CO., LTD., priority 2018, published 2021)

Assay: Influencing factors stability (heating, light illumination, high humidity; spread and uncovered, 20 days)
Type: physicochemical
Conditions: for Maximum single impurity / Purity / Total impurities: monohydrochloride
Protocol: Example 6: the crystal form I of the dihydrochloride salt of the compound represented by formula (I) (example 1) was spread and uncovered, and the steadily of the sample was evaluated under heating (40° C., 60° C.), light illumination (4500 Lux), and high humidity (RH 75%, RH 90%) with a period of 20 days.
(§1) Example 10: the crystal form A (example 7) of the monohydrochloride salt of the compound of formula (I) was spread and uncovered, and the stability of the sample was evaluated under heating (40° C., 60° C.), light illumination (4500 Lux), high humidity (RH 75%, RH 90%) conditions with a period of 20 days.
as §1, with “Example 11:” for “Example 10:”, “form B” for “form A (example 7)”, “compound represented by” for “compound of”, “(I) (example 8)” for “(I)”
as §1, with “Example 12:” for “Example 10:”, “form C” for “form A (example 7)”, “compound represented by” for “compound of”, “(I) (example 9)” for “(I)”

[1] = light illumination (4500 Lux), 4 days
[2] = light illumination (4500 Lux), 10 days
[3] = light illumination (4500 Lux), 20 days

CCCCOc1nc(N)c2cnn(Cc3ccc(CN4CCCC4)cc3)c2n1.Cl [crystal form A, 6-butoxy-1-(4-(pyrrolidin-1-ylmethyl)benzyl)-1H-pyrazolo[3,4-d]pyrimidin-4-amine monohydrochloride]
Maximum single impurity (0 day): 0.09%
Purity (0 day): 99.74%
Total impurities (0 day): 0.26%
Maximum single impurity (40° C., 4 days): 0.09%
Purity (40° C., 4 days): 99.72%
Total impurities (40° C., 4 days): 0.28%
Maximum single impurity (40° C., 10 days): 0.06%
Purity (40° C., 10 days): 99.72%
Total impurities (40° C., 10 days): 0.28%
Maximum single impurity (40° C., 20 days): 0.06%
Purity (40° C., 20 days): 99.70%
Total impurities (40° C., 20 days): 0.30%
Maximum single impurity (60° C., 4 days): 0.08%
Purity (60° C., 4 days): 99.72%
Total impurities (60° C., 4 days): 0.28%
Maximum single impurity (60° C., 10 days): 0.06%
Purity (60° C., 10 days): 99.75%
Total impurities (60° C., 10 days): 0.25%
Maximum single impurity (60° C., 20 days): 0.06%
Purity (60° C., 20 days): 99.70%
Total impurities (60° C., 20 days): 0.30%
Maximum single impurity (75% RH, 4 days): 0.09%
Purity (75% RH, 4 days): 99.72%
Total impurities (75% RH, 4 days): 0.28%
Maximum single impurity (75% RH, 10 days): 0.06%
Purity (75% RH, 10 days): 99.74%
Total impurities (75% RH, 10 days): 0.26%
Maximum single impurity (75% RH, 20 days): 0.08%
Purity (75% RH, 20 days): 99.68%
Total impurities (75% RH, 20 days): 0.32%
Maximum single impurity (90% RH, 4 days): 0.08%
Purity (90% RH, 4 days): 99.72%
Total impurities (90% RH, 4 days): 0.28%
Maximum single impurity (90% RH, 10 days): 0.06%
Purity (90% RH, 10 days): 99.76%
Total impurities (90% RH, 10 days): 0.24%
Maximum single impurity (90% RH, 20 days): 0.08%
Purity (90% RH, 20 days): 99.72%
Total impurities (90% RH, 20 days): 0.28%
Maximum single impurity [1]: 0.09%
Purity [1]: 99.70%
Total impurities [1]: 0.30%
Maximum single impurity [2]: 0.06%
Purity [2]: 99.75%
Total impurities [2]: 0.25%
Maximum single impurity [3]: 0.08%
Purity [3]: 99.63%
Total impurities [3]: 0.37%
stability under the influencing factor conditions (in words) (light illumination, 40° C., 60° C., 75% RH, 90% RH, 20 days): good
